From patent publication US20260193149A1, “[…] USEFUL MINERAL AMINO ACID COMPLEXES” (Statera Ag, LLC, priority 2022, published 2026)
“And” between values parts separate entries of the source, which are not always exact repeats. Identical values can stand only once.

Tests used:
corn [1] = test: Boron absorption into corn leaf after foliar application, growth stage V5 (Example 4)
Experimental: Each solution was applied independently of one another at these rates, and the applications emulated commercial application conditions, with 30-inch spacings. The test solutions were applied to three different fields to allow for data replication. The corn was at growth stage V5 during the test. Each test solution was evenly applied using a portable foliar applicator ([…] M18 sprayer with a four-gallon tank). Application time per row was recorded to allow for the calculation of an average application rate of the applicator. Any remaining application solution was weighed to allow for the exact calculation of applied solution per acre (converted below to ounces per acre). The solution application rates are reported below in Table 11 and boron application rates are reported below in Table 12. Applications were done in the heat of the day (96° F.), with minimal wind to preclude drift. Control strips for each product at both application rates were identified, and tissue samples from the control strips were collected to reflect an application rate of 0.00 ounces of product per 68 ounces of water.
Tissues were collected after two days using standard tissue collection procedures. Twelve top collar leaves were collected per row. The leaf samples were placed in paper bags and sent to a commercial lab for leaf mineral analysis using ICP-AA.
The application rates reported above Table 11 were adjusted by the concentration of the applied product so that the data could be compared on an equivalent basis, which are reported in Table 12. Tissue boron was regressed against the adjusted applied rates using the Fit Y×X model of SAS JMP (v. 15.0). The Experimental Unit was Field.
Five chemical compounds containing boron were evaluated. The slope of the line was defined according to the following equation: […]

corn [2] = test: Boron absorption into corn leaf after foliar application, growth stage V7 (Example 5); format: in vivo; conditions: leaves collected after two days
Experimental: The same procedure of Example 4 was followed for this Example, and the same application solutions at rate 2 were used and applied to three separate fields of corn at growth stage V7.
Twelve top collar leaves were collected per row.
Tissue boron data were analyzed using the Fit Y×X module of SAS JMP (v. 15.0). The tissue data were compared using the Oneway Analysis option. Means for boric acid and boron lysinate were separated using the Student's t-test.

[3] = corn V5, foliar application, top collar leaves collected after two days, slope of tissue boron vs applied boron

Row | Molecule | B Absorption, ppm/oz applied B (corn [1]; corn, in vivo, 2 days) [ppm/oz applied B] | increase of corn tissue boron for every ounce of boron applied (corn [1]; corn, in vivo, 2 days) [ppm] | boron absorption greater than boric acid (corn [1]; corn V5, Example 4) | increase of corn tissue boron for every ounce of boron applied (corn [1]; corn V5, Example 4, per ounce applied boron) [ppm] | B Absorption, ppm/oz applied B (corn [1]; [3]) [ppm/oz applied B] | Boron Absorption, ppm/oz B (corn [2]) | Boron Absorption, ppm/oz B (corn [2]; listed as boron lysinate) [ppm/oz B] | decrease of boron absorbed into leaf tissue compared to boric acid (corn [1]; corn V5, Example 4) [ppm]
1 | OB(O)O [Boric acid, boric acid, reference compound] | 4.58 | 4.58 | – | – | – | – | – | –
2 | boron lysinate | – | – | 3.92 ppm and 3.08 ppm | 7.66 | 7.66 | 13.13 ppm/oz B and 13.13^b ppm/oz B | 13.13 | –
3 | ethanolamine boron [Boron ethanolamine, reference compound] | – | – | – | – | 4.13 | – | – | 0.45
